From patent US20250179061A1 (SIRONAX LTD., priority 2022, published 2025)

test system: HT-29 cells; experiment: HT-29 necroptosis cell viability assay (TNF-α/SMAC mimetic/zVAD-FMK, CellTiter-Glo); format: cell-based; conditions: Homo sapiens; HT-29 cells stimulated with TNF-α (10 ng/ml), SMAC mimetic (6 μM) and zVAD-FMK (10 μM); 20 hours; CellTiter-Glo ATP luminescence; geometric mean IC50 from 10 points; read-out: Activity
Experimental: Compounds 1-702 of the disclosure were tested for biological activity, following the experimental procedures described below.
• Cell line: HT-29 (ATCC® HTB-38™) • Culture medium: McCOY's 5A, Gibco, Cat No. 16600-082 • FBS, Gibco, Cat No. 10099-141 C • Trypsin: Gibco, Cat No. 25200-056 • DMSO: Sigma, Cat No. 67-68-5, 1L • Assay plate: Corning #3903 • Compound dilution plate: Corning #3357 • Inducers: TNFα, GenScript, Cat No. Z01001-50, • SmacM, Cat. No., HY-15989, MedChemExpress (MCE) • Z_VAD FMK, TargetMol, T6013 • Cell Titer-Glo® Luminescent Cell Viability Assay Kit: Promega, Cat No. G7573 • EnVision: PerkinElmer, 2105-0010
• 1. HT-29 cells were checked every day to make sure that they were healthy and growing as expected. They were subjected to sub-culturing when they were approximately 80% confluent. • 2. The culture medium, McCOY's 5A medium (Gibco, Cat No. 16600-082) with 10% fetal bovine serum or FBS (Gibco, Cat No. 10099-141C), was pre-warmed in a 37° C. water bath for at least 30 min. • 3. When the cells had reached a desired level of confluency of 80% in a T75 flask, the medium was aspirated, and the cells were washed with warm phosphate buffered saline or PBS two times. • 4. 2-3 ml fresh warm trypsin (Gibco, Cat No. 25200-056) solution was added to the washed cells. The flask with the cells was transferred to a 37° C. incubator. • 5. After 5 minutes, the side of the flask was tapped, and the flask was examined under a microscope for detachment of the cells to the flask. If necessary, the cells were kept in the incubator for an additional 5-10 minutes, with occasional tapping, until lifting was complete. • 6. The trypsin reaction was neutralized by transferring 6-9 ml cell culture medium to sterile 15 ml conical tubes, and by centrifuging the cell culture at 300×g for 7 minutes to pellet the cells (supernatant decanted). • 7. The cells were resuspended in fresh cell culture medium and the cell counting was performed using a hemocytometer. • 8. 100 μl of the resuspended cell culture medium containing ˜5,000 cells were transferred into each well of the sterile 96-well cell culture plate (Corning 3903) and cultured overnight at 37° C. with 5% CO2.
• 1. All test compounds were dissolved in DMSO (Dimethyl sulfoxide) to create a 20 mM stock. • 2. 3 μl of 20 mM stock of each compound was mixed with 27 μl DMSO, and the compound solution was further diluted at a titration ratio of 1:3 (20 μl compound solution+40 μl DMSO) till the 10 points end. • 3. All culture medium was removed from assay plates filled with HT-29 cell cultures. The cells were then washed with 1 PBS, and resuspsended in fresh, FBS-free McCOY's 5A medium containing a cocktail of TNF-α (10 ng/ml), a SMAC mimetic compound (6 μM) and Z-VAD-fluoromethylketone or zVAD-FMK (10 μM) to stimulate the HT-29 cells to increase RIP1 kinase levels and necroptosis. • 4. 0.5 μL of the diluted compound solution was added to the corresponding 96-well assay plates. • 5. The assay plates were incubated for 20 hours at 37° C. with 5% CO2.
• 1. The CellTiter-Glo® Luminescent Cell Viability Assay was employed to detect the ATP levels of viable HT-29 cells. • 2. The CellTiter-Glo® buffer and the lyophilized substrate were equilibrated to room temperature prior to use. • 3. The CellTiter-Glo® substrate was resuspended with CellTiter-Glo® buffer, then mixed by gently vortexing to obtain a homogeneous solution. • 4. 20 μl of the enzyme/substrate mixture was transferred by multi-channel pipetting into 96-well assay plates. • 5. The assay plates were placed on an orbital shaker and the contents were shaken for 3 minutes to induce cell lysis. • 6. The assay plates were incubated at room temperature for 10 minutes to stabilize the luminescent signal. • 7. The luminescence signals were read and recorded with EnVision. • 8. The geometric mean IC50 values were calculated from 10 points response dose with duplicates. […]

SMILES	IC50
Cc1cc(C(N)=O)n(C)c1Oc1ccc(-n2nc3n(c2=O)[C@H](c2ccccc2)CC3)cc1F (single isomer, unassigned) [Example 697]	< 100 nM
Cc1nc(C(N)=O)sc1Oc1ccc(-n2nc3n(c2=O)[C@H](c2ccccc2F)C[C@@H]3F)cc1F (single isomer, unassigned) [Example 698]	< 100 nM
Cn1nc(C(N)=O)cc1Oc1ccc(-n2nc3n(c2=O)[C@H](c2ccccc2F)C[C@@H]3F)cc1F (single isomer, unassigned) [Example 699]	< 100 nM
Cc1nc(C(N)=O)sc1Oc1ccc(-n2nc3n(c2=O)[C@H](c2cncc(F)c2)CC3)cc1F (single isomer, unassigned) [Example 700]	< 100 nM
Cc1nc(C(N)=O)oc1Oc1ccc(-n2nc3n(c2=O)[C@H](c2c(F)cccc2F)CC3)cc1F (single isomer, unassigned) [Example 701]	< 100 nM
Cc1nc(C(N)=O)sc1Oc1ccc(-n2nc3n(c2=O)[C@H](C2CCCC2)CC3)cc1F (single isomer, unassigned) [Example 702]	< 100 nM
Cc1nc(Br)sc1Oc1ccc(-n2ncn(Cc3c(F)cccc3F)c2=O)cc1F [Example 1, 2-(4-((2-bromo-4-methylthiazol-5-yl)oxy)-3-fluorophenyl)-4-(2,6-difluorobenzyl)-2,4-dihydro-3H-1,2,4-triazol-3-one]	< 100 nM
Cc1ncsc1Oc1ccc(-n2ncn(Cc3c(F)cccc3F)c2=O)cc1F [Example 2, 4-(2,6-difluorobenzyl)-2-(3-fluoro-4-((4-methylthiazol-5-yl)oxy)phenyl)-2,4-dihydro-3H-1,2,4-triazol-3-one]	< 100 nM
Cc1ncsc1Oc1ccc(-n2ncn(Cc3c(F)cccc3F)c2=O)cc1Cl [Example 5, 2-(3-chloro-4-((4-methylthiazol-5-yl)oxy)phenyl)-4-(2,6-difluorobenzyl)-2,4-dihydro-3H-1,2,4-triazol-3-one]	< 100 nM
Cc1nc(Br)sc1Oc1ccc(-n2ncn(Cc3ccccc3C#N)c2=O)cc1F [Example 6, 2-((1-(4-((2-bromo-4-methylthiazol-5-yl)oxy)-3-fluorophenyl)-5-oxo-1-5-dihydro-4H-1,2,4-triazol-4-yl)methyl)benzonitrile]	100 to 1000 nM
Cc1nc(Br)sc1Oc1ccc(-n2ncn(Cc3c(F)cccc3C#N)c2=O)cc1F [Example 7, 2-((1-(4-((2-bromo-4-methylthiazol-5-yl)oxy)-3-fluorophenyl)-5-oxo-1,5-dihydro-4H-1,2,4-triazol-4-yl)methyl)-3-fluorobenzonitrile]	< 100 nM
Cc1ncsc1Oc1ccc(-n2ncn(Cc3ccccc3F)c2=O)cc1F [Example 8, 2-(3-fluoro-4-((4-methylthiazol-5-yl)oxy)phenyl)-4-(2-fluorobenzyl)-2,4-dihydro-3H-1,2,4-triazol-3-one]	< 100 nM
Cc1ncsc1Oc1ccc(-n2ncn(Cc3cc(Cl)ccn3)c2=O)cc1F [Example 9, 4-((4-chloropyridin-2-yl)methyl)-2-(3-fluoro-4-((4-methylthiazol-5-yl)oxy)phenyl)-2,4-dihydro-3H-1,2,4-triazol-3-one]	100 to 1000 nM
COC(=O)c1nc(C)c(Oc2ccc(-n3ncn(Cc4cc(Cl)ccn4)c3=O)cc2F)s1 [Example 10, methyl 5-(4-(4-((4-chloropyridin-2-yl)methyl)-5-oxo-4,5-dihydro-1H-1,2,4-triazol-1-yl)-2-fluorophenoxy)-4-methylthiazole-2-carboxylate]	1000 to 10000 nM
Cc1nc(Oc2ccncc2)sc1-n1ncn(Cc2c(F)cccc2F)c1=O [Example 11, 4-(2,6-difluorobenzyl)-2-(4-methyl-2-(pyridin-4-yloxy)thiazol-5-yl)-2,4-dihydro-3H-1,2,4-triazol-3-one]	> 10000 nM
O=c1n(-c2ccc(Oc3cc(Cl)ncc3F)c(F)c2)nc2n1C(c1ccccc1)CC2 (stereo not shown) [Example 12, 2-(4-((2-chloro-5-fluoropyridin-4-yl)oxy)-3-fluorophenyl)-5-phenyl-2,5,6,7-tetrahydro-3H-pyrrolo[2,1-c][1,2,4]triazol-3-one]	< 100 nM
Cc1nc(C(N)=O)sc1Oc1ccc(-n2nc3n(c2=O)C(c2ccccc2)CC3)cc1F (stereo not shown) [Example 13, 5-(2-fluoro-4-(3-oxo-5-phenyl-6,7-dihydro-3H-pyrrolo[2,1-c][1,2,4]triazol-2(5H)-yl)phenoxy)-4-methylthiazole-2-carboxamide]	< 100 nM
Cc1nc(C(=O)N2C[C@@H](C)O[C@@H](C)C2)sc1Oc1ccc(-n2nc3n(c2=O)[C@H](c2ccccc2)CC3)cc1F [Example 20, (S)-2-(4-((2-((2S,6R)-2,6-dimethylmorpholine-4-carbonyl)-4-methylthiazol-5-yl)oxy)-3-fluorophenyl)-5-phenyl-2,5,6,7-tetrahydro-3H-pyrrolo[2,1-c][1,2,4]triazol-3-one]	< 100 nM
Cc1nc(C(=O)NC2COC2)sc1Oc1ccc(-n2nc3n(c2=O)[C@H](c2ccccc2)CC3)cc1F [Example 21, (S)-5-(2-fluoro-4-(3-oxo-5-phenyl-6,7-dihydro-3H-pyrrolo[2,1-c][1,2,4]triazol-2(5H)-yl)phenoxy)-4-methyl-N-(oxetan-3-yl)thiazole-2-carboxamide]	< 100 nM
Cc1nc(C(=O)N2CCOCC2)sc1Oc1ccc(-n2ncn(Cc3c(F)cccc3F)c2=O)cc1F [Example 22, 4-(2,6-difluorobenzyl)-2-(3-fluoro-4-((4-methyl-2-(morpholin-4-carbonyl)thiazol-5-yl)oxy)phenyl)-2,4-dihydro-3H-1,2,4-triazol-3-one]	< 100 nM
Cc1c(C(N)=O)nn(C)c1Oc1ccc(-n2nc3n(c2=O)C(c2ccccc2)CC3)cc1F (stereo not shown) [Example 23, 5-(2-fluoro-4-(3-oxo-5-phenyl-6,7-dihydro-3H-pyrrolo[2,1-c][1,2,4]triazol-2(5H)-yl)phenoxy)-1,4-dimethyl-1H-pyrazole-3-carboxamide]	< 100 nM
Cc1nc(C(=O)NCCN2CCOCC2)sc1Oc1ccc(-n2ncn(Cc3c(F)cccc3F)c2=O)cc1F [Example 24, 5-(4-(4-(2,6-diflurobenzyl)-5-oxo-4,5-dihydro-1H-1,2,4-triazol-1-yl)-2-fluorophenoxy)-4-methyl-N-(2-morpholinoethyl)thiazole-2-carboxamide]	< 100 nM
Cc1nc(C(=O)NCCN2CCOCC2)sc1Oc1ccc(-n2ncn(Cc3ccccc3F)c2=O)cc1F [Example 25, 5-(2-fluoro-4-(4-(2-fluorobenzyl)-5-oxo-4,5-dihydro-1H-1,2,4-triazol-1-yl)phenoxy)-4-methyl-N-(2-morpholinoethyl)thiazole-2-carboxamide]	< 100 nM
Cc1cccnc1Cn1cnn(-c2ccc(Oc3sc(C(N)=O)nc3C)c(F)c2)c1=O [Example 26, 5-(2-fluoro-4-(4-((3-methylpyridin-2-yl)methyl)-5-oxo-4,5-dihydro-1H-1,2,4-triazol-1-yl)phenoxy)-4-methylthiazole-2-carboxamide]	100 to 1000 nM
Cc1nc(C(=O)NCCN)sc1Oc1ccc(-n2ncn(Cc3ccccc3F)c2=O)cc1F [Example 27, N-(2-aminoethyl)-5-(2-fluoro-4-(4-(2-fluorobenzyl)-5-oxo-4,5-dihydro-1H-1,2,4-triazol-1-yl)phenoxy)-4-methylthiazole-2-carboxamide]	< 100 nM
